Five molecules from ChEMBL document CHEMBL1124085, “Flavins as potential antimalarials. 1. 10-(Halophenyl)-3-methylflavins” (1988) can be followed below.

Structures are written as SMILES.

For test [1], the system named is Mus musculus. The test can be described thus: Oral antimalarial activity against Plasmodium vinckei in mice (Mus musculus) measured as % cured and increase in MST (days) at 75 mg/kg dose. The format is functional.
Test [2] deals with Mus musculus. Put plainly: Oral antimalarial activity against Plasmodium vinckei in mice (Mus musculus) measured as increase in mean survival time at 150 mg/kg dose. It counts as functional.
Test [3] relates to Mus musculus. The test can be described thus: Oral antimalarial activity against Plasmodium vinckei vinckei in mice (Mus musculus) measured as increase in mean survival time at 100 mg/kg dose. The format is functional.
Test [4] relates to Mus musculus. The test can be described thus: Parenteral antimalarial activity against Plasmodium vinckei vinckei in mice (Mus musculus) measured as % cured and increase in MST (days) at 25 mg/kg dose. It counts as functional.
In test [5] the test system is Mus musculus. The test can be described thus: Parenteral antimalarial activity against Plasmodium vinckei in mice (Mus musculus) measured as % cured and increase in MST (days) at 15 mg/kg dose. It counts as functional.
Test [6] deals with Mus musculus. Put plainly: Oral antimalarial activity against Plasmodium vinckei vinckei in mice (Mus musculus) measured as increase in mean survival time at 50 mg/kg dose. The format is functional.
Test [7] has as its system Mus musculus. Put plainly: Oral antimalarial activity against Plasmodium vinckei vinckei in mice (Mus musculus) measured as increase in mean survival time at 75 mg/kg dose. It counts as functional.
For test [8], the system named is Mus musculus. The test can be described thus: Parenteral antimalarial activity against Plasmodium vinckei vinckei in mice (Mus musculus) measured as % cured and increase in MST (days) at 10 mg/kg dose. The format is functional.
Test [9] relates to Mus musculus. Put plainly: Parenteral antimalarial activity against Plasmodium vinckei vinckei in mice (Mus musculus) measured as % cured and increase in MST (days) at 30 mg/kg dose. It counts as functional.
In test [10] the test system is Mus musculus. The test can be described thus: Parenteral antimalarial activity against Plasmodium vinckei in mice (Mus musculus) measured as % cured and increase in MST (days) at 30 mg/kg dose. The format is functional.
For test [11], the system named is Mus musculus. The test can be described thus: Oral antimalarial activity against Plasmodium vinckei vinckei in mice (Mus musculus) measured as % cured and increase in MST (days) at 150 mg/kg dose. The format is functional.
Test [12] concerns Mus musculus. Put plainly: Parenteral antimalarial activity against Plasmodium vinckei in mice (Mus musculus) measured as % cured and increase in MST (days) at 25 mg/kg dose. The format is functional.
Test [13] relates to Mus musculus. The test can be described thus: Oral antimalarial activity against Plasmodium vinckei in mice (Mus musculus) measured as increase in mean survival time at 25 mg/kg dose. It counts as functional.
For test [14], the system named is Mus musculus. Put plainly: Parenteral antimalarial activity against Plasmodium vinckei vinckei in mice (Mus musculus) measured as % cured and increase in MST (days) at 20 mg/kg dose. It counts as functional.
The subject of test [15] is Mus musculus. The test can be described thus: Oral antimalarial activity against Plasmodium vinckei in mice (Mus musculus) measured as % cured and increase in MST (days) at 25 mg/kg dose. It counts as functional.
Test [16] concerns Mus musculus. The test can be described thus: Oral antimalarial activity against Plasmodium vinckei in mice (Mus musculus) measured as % cured and increase in MST (days) at 50 mg/kg dose. The format is functional.
In test [17] the test system is Mus musculus. Put plainly: Oral antimalarial activity against Plasmodium vinckei vinckei in mice (Mus musculus) measured as % cured and increase in MST (days) at 100 mg/kg dose. It counts as functional.
Test [18] has as its system Mus musculus. Put plainly: Parenteral antimalarial activity against Plasmodium vinckei vinckei in mice (Mus musculus) measured as increase in mean survival time at 25 mg/kg dose. The format is functional.
Test [19] relates to Mus musculus. Put plainly: Parenteral antimalarial activity against Plasmodium vinckei in mice (Mus musculus) measured as increase in mean survival time at 10 mg/kg dose. The format is functional.
The test system of test [20] is Mus musculus. The test can be described thus: Parenteral antimalarial activity against Plasmodium vinckei vinckei in mice (Mus musculus) measured as increase in mean survival time at 30 mg/kg dose. The format is functional.
Test [21] has as its system Mus musculus. Put plainly: Parenteral antimalarial activity against Plasmodium vinckei in mice (Mus musculus) measured as increase in mean survival time at 15 mg/kg dose. It counts as functional.
In test [22] the test system is Mus musculus. Put plainly: Parenteral antimalarial activity against Plasmodium vinckei vinckei in mice (Mus musculus) measured as increase in mean survival time at 20 mg/kg dose. It counts as functional.
Test [23] deals with Mus musculus. The test can be described thus: Parenteral antimalarial activity against Plasmodium vinckei in mice (Mus musculus) measured as % cured and increase in MST (days) at 30 mg/kg dose.
Test [24] concerns Mus musculus. Put plainly: Oral antimalarial activity against Plasmodium vinckei vinckei in mice (Mus musculus) measured as increase in mean survival time at 75 mg/kg dose. The format is functional.
Test [25] deals with Mus musculus. Put plainly: Oral antimalarial activity against Plasmodium vinckei in mice (Mus musculus) measured as increase in mean survival time at 150 mg/kg dose. It counts as functional.
Test [26] relates to Mus musculus. Put plainly: Oral antimalarial activity against Plasmodium vinckei vinckei in mice (Mus musculus) measured as % cured and increase in MST (days) at 150 mg/kg dose. The format is functional.
The subject of test [27] is Mus musculus. Put plainly: Oral antimalarial activity against Plasmodium vinckei vinckei in mice (Mus musculus) measured as % cured and increase in MST (days) at 100 mg/kg dose. It counts as functional.
Test [28] has as its system Mus musculus. Put plainly: Parenteral antimalarial activity against Plasmodium vinckei in mice (Mus musculus) measured as increase in mean survival time at 15 mg/kg dose. The format is functional.
Test [29] concerns Mus musculus. The test can be described thus: Parenteral antimalarial activity against Plasmodium vinckei in mice (Mus musculus) measured as % cured and increase in MST (days) at 10 mg/kg dose. The format is functional.
For test [30], the system named is Mus musculus. The test can be described thus: Parenteral antimalarial activity against Plasmodium vinckei in mice (Mus musculus) measured as % cured and increase in MST (days) at 20 mg/kg dose. The format is functional.
The subject of test [31] is Mus musculus. The test can be described thus: Parenteral antimalarial activity against Plasmodium vinckei in mice (Mus musculus) measured as increase in mean survival time at 25 mg/kg dose; Toxic. The format is functional.
The subject of test [32] is Mus musculus. Put plainly: Oral antimalarial activity against Plasmodium vinckei vinckei in mice (Mus musculus) measured as % cured and increase in MST (days) at 50 mg/kg dose. It counts as functional.
Test [33] deals with Mus musculus. Put plainly: Oral antimalarial activity against Plasmodium vinckei in mice (Mus musculus) measured as increase in mean survival time at 100 mg/kg dose. It counts as functional.
Test [34] relates to Mus musculus. Put plainly: Parenteral antimalarial activity against Plasmodium vinckei in mice (Mus musculus) measured as increase in mean survival time at 10 mg/kg dose. The format is functional.
For test [35], the system named is Mus musculus. The test can be described thus: Parenteral antimalarial activity against Plasmodium vinckei vinckei in mice (Mus musculus) measured as % cured and increase in MST (days) at 15 mg/kg dose. The format is functional.
Test [36] concerns Mus musculus. Put plainly: Oral antimalarial activity against Plasmodium vinckei vinckei in mice (Mus musculus) measured as increase in mean survival time at 50 mg/kg dose. The format is functional.
The subject of test [37] is Mus musculus. The test can be described thus: Oral antimalarial activity against Plasmodium vinckei in mice (Mus musculus) measured as increase in mean survival time at 25 mg/kg dose. It counts as functional.
Test [38] relates to Mus musculus. Put plainly: Oral antimalarial activity against Plasmodium vinckei in mice (Mus musculus) measured as % cured and increase in MST (days) at 25 mg/kg dose. It counts as functional.
The test system of test [39] is Mus musculus. Put plainly: Oral antimalarial activity against Plasmodium vinckei in mice (Mus musculus) measured as % cured and increase in MST (days) at 75 mg/kg dose. It counts as functional.
Test [40] relates to Mus musculus. Put plainly: Parenteral antimalarial activity against Plasmodium vinckei in mice (Mus musculus) measured as increase in mean survival time at 20 mg/kg dose; Toxic. It counts as functional.
The test system of test [41] is Mus musculus. The test can be described thus: Parenteral antimalarial activity against Plasmodium vinckei in mice (Mus musculus) measured as % cured and increase in MST (days) at 25 mg/kg dose. The format is functional.

For `O=c1nc2n(-c3ccc(Cl)cc3)c3ccccc3nc-2c(=O)[nH]1`, the Cured in the test with Mus musculus [1], with Mus musculus [4], in the test with Mus musculus [5], in the test with Mus musculus [8], with Mus musculus [9] and in the test with Mus musculus [11] was 0% each time. In addition, the Cured in the test with Mus musculus [14], in the test on Mus musculus [15], with Mus musculus [16] and in the test with Mus musculus [17] was 0% each time. The MST with Mus musculus [2], in the test with Mus musculus [3], in the test with Mus musculus [5], with Mus musculus [6], in the test with Mus musculus [7] and with Mus musculus [8] was 0 days throughout. For the same molecule, the MST with Mus musculus [10], in the test on Mus musculus [12], with Mus musculus [13] and in the test on Mus musculus [14] was 0 days each time.
As to `Cn1c(=O)nc2n(-c3cc(Cl)ccc3Cl)c3ccccc3nc-2c1=O`, the MST with Mus musculus [18], in the test on Mus musculus [2], in the test on Mus musculus [3], in the test with Mus musculus [19], in the test on Mus musculus [6] and in the test with Mus musculus [20] was 0 days throughout. Besides, the MST with Mus musculus [7], with Mus musculus [21], in the test on Mus musculus [22] and with Mus musculus [13] was 0 days each time. Also, the Cured in the test with Mus musculus [1], in the test on Mus musculus [4], with Mus musculus [5], with Mus musculus [8], in the test with Mus musculus [9] and in the test on Mus musculus [11] was 0% in each case. The Cured in the test with Mus musculus [14], in the test on Mus musculus [15], in the test with Mus musculus [16] and in the test on Mus musculus [17] was 0% throughout.
Consider `Cn1c(=O)nc2n(-c3cc(Cl)cc(Cl)c3)c3ccccc3nc-2c1=O`, for which the Cured in the test with Mus musculus [1], in the test on Mus musculus [4], with Mus musculus [5], with Mus musculus [8], with Mus musculus [11] and in the test on Mus musculus [23] was 100% each time. Also, the Cured in the test with Mus musculus [14] was found to be 100%; in the test with Mus musculus [15], 60%; with Mus musculus [16], 100%; with Mus musculus [17], 100%. The MST in the test with Mus musculus [13] was found to be 3.5 days.
As for `Cn1c(=O)nc2n(-c3ccccc3Cl)c3ccccc3nc-2c1=O`, the MST with Mus musculus [24] was 0 days; with Mus musculus [25] it was 0 days; with Mus musculus [28], 0 days; with Mus musculus [31] it was -1.4 days; in the test on Mus musculus [33] it was 0 days; with Mus musculus [34] it was 0 days. Moreover, the MST in the test with Mus musculus [36] was 0 days; with Mus musculus [37], 0 days; with Mus musculus [40], -0.2 days. Moreover, the Cured in the test with Mus musculus [26], with Mus musculus [27], in the test on Mus musculus [29], with Mus musculus [30], with Mus musculus [32] and with Mus musculus [35] was 0% throughout. The Cured with Mus musculus [38], with Mus musculus [39] and in the test on Mus musculus [41] was 0% each time.
For `Cn1c(=O)nc2n(-c3ccc(Cl)c(Cl)c3)c3ccccc3nc-2c1=O`, the Cured with Mus musculus [1] is 0%; in the test with Mus musculus [4], 80%; in the test with Mus musculus [5], 60%; in the test on Mus musculus [8], 0%; in the test with Mus musculus [9], 60%; in the test with Mus musculus [11], 40%. In addition, the Cured came to 100% with Mus musculus [14], 0% in the test on Mus musculus [15], 0% with Mus musculus [16] and 0% in the test on Mus musculus [17]. Further, the MST in the test with Mus musculus [3] is 0.5 days; with Mus musculus [5] it was 0.5 days; in the test on Mus musculus [6], 0 days; in the test with Mus musculus [7] it was 0.5 days; with Mus musculus [8], 0.5 days; in the test with Mus musculus [10], 1 days. Also, the MST in the test on Mus musculus [12] and with Mus musculus [13] was 0 days in each case.
